Results as given in patent publication US20130035281A1, “PHARMACEUTICAL COMPOSITION, METHODS FOR TREATING AND USES THEREOF” (BOEHRINGER INGELHEIM INTERNATIONAL GMBH, priority 2011, published 2013).

How the values were obtained:
[1] = test system: Zucker diabetic fatty (ZDF) rats; test: Oral glucose tolerance test in ZDF rats; type: in vivo; conditions: overnight fasted 12-weeks old male ZDF rats; single dose; Cpd. A 3 mg/kg oral, exendin-4 0.01 mg/kg subcutaneous; oral glucose 2 g/kg; blood glucose up to 120 min
Method: An oral glucose tolerance test was performed in overnight fasted 12-weeks old male Zucker diabetic fatty (ZDF) rats (ZDF/CRL-Lepr^fa). A pre-dose blood sample was obtained by tail bleed. Blood glucose was measured with a glucometer, and the animals were randomized for blood glucose (n=5/group). Subsequently, the groups received a single oral administration of either vehicle alone (0.5% aqueous hydroxyethylcellulose) or this vehicle containing the glucopyranosyl-substituted benzene derivative. […] The animals were orally dosed with glucose (2 g/kg) 30 min after the subcutaneous injection. Blood glucose was measured in tail blood 15 min, 30 min, 60 min, 90 min, and 120 min thereafter. Glucose excursion was quantified by calculating the reactive glucose AUC. The data are presented as mean±S.E.M. The two-sided unpaired Student's t-test was used for statistical comparison of the groups. A p value<0.05 was considered to show a statistically significant difference.

[2] = metformin on its own, in the diabetic; cited from earlier work

SMILES: OC[C@H]1O[C@@H](c2ccc(Cl)c(Cc3ccc(O[C@H]4CCOC4)cc3)c2)[C@H](O)[C@@H](O)[C@@H]1O [Cpd. A]
- reduction of glucose excursion (reactive glucose AUC) [1]: 57%

SMILES: CN(C)C(=N)N=C(N)N [metformin]
- average improvement in the HbA1c value [2]: 1.0-1.5%
